Earlier results, collected in US20100028912A1, “IMAGING USING RADIOACTIVE MONOCATIONS IN COMBINATION WITH A RECEPTOR BINDING LIGAND THAT STIMULATES THE INFLUX OF CATIONS” (BRACCO IMAGING S.P.A., priority 2006, published 2010).

Key:
Na+-K+ pump = details: guinea pig pancreatic acinar cells in vitro
[1] = system: guinea pig tracheal smooth muscle cells; details: cultured guinea pig tracheal smooth muscle cells
[2] = system: quiescent Swiss 3T3 cells; details: cells treated with Na+/K+ ATPase pump inhibitor
[3] = system: alpha(1)-adrenoceptors (AR); details: 30 μM; isolated perfused rat hearts and isolated cardiomyocytes
[4] = system: rat vascular smooth muscle cells; details: rat vascular smooth muscle cells in culture
[5] = system: Na+-K+-2Cl- cotransporter (NKCC); details: acute cell exposure; rat L6 skeletal muscle cells

Compound: CSCC[C@H](NC(=O)[C@H](Cc1ccc(OS(=O)(=O)O)cc1)NC(=O)[C@@H](N)CC(=O)O)C(=O)NCC(=O)N[C@@H](Cc1c[nH]c2ccccc12)C(=O)N[C@@H](CCSC)C(=O)N[C@@H](CC(=O)O)C(=O)N[C@@H](Cc1ccccc1)C(N)=O [CCK-8, cholecystokinin octapeptide]
- stimulation of ouabain-sensitive 86Rb+ uptake (Na+-K+ pump): approximately 60%

Compound: C[N+](C)(C)CCOC(N)=O [Carbachol]
- stimulation of ouabain-sensitive 86Rb+ uptake (Na+-K+ pump): approximately 60%

Compound: NCCc1c[nH]c2ccc(O)cc12 [Serotonin, 5-hydroxytryptamine]
- uptake of 86Rb+ [1]: increases

Compound: CCCC(=O)Nc1ncnc2c1ncn2[C@@H]1O[C@@H]2COP(=O)(O)O[C@H]2[C@H]1OC(=O)CCC [dibutyryl cAMP]
- increase of Na+-K+ pump activity (as measured by ouabain-sensitive 86Rb+ uptake) (Na+-K+ pump): approximately 40%

Compound: C[C@@H]1O[C@@H](O[C@H]2C[C@@H](O)[C@]3(CO)[C@H]4[C@H](O)C[C@]5(C)[C@@H](C6=CC(=O)OC6)CC[C@]5(O)[C@@H]4CC[C@]3(O)C2)[C@H](O)[C@H](O)[C@H]1O [ouabain]
- effect on bombesin stimulation of 86Rb+ uptake [2]: virtually abolished

Compound: CNC[C@H](O)c1cccc(O)c1 [phenylephrine]
- 86Rb+ influx into myocardial cells [3]: increased

Compound: Cn1c(=O)c2[nH]cnc2n(C)c1=O [theophylline]
- increase of Na+-K+ pump activity (as measured by ouabain-sensitive 86Rb+ uptake) (Na+-K+ pump): approximately 40%

Compound: Platelet-derived growth factor
- influx of 86Rb [4]: acute increase

Compound: Secretin
- increase of Na+-K+ pump activity (as measured by ouabain-sensitive 86Rb+ uptake) (Na+-K+ pump): approximately 40%

Compound: insulin
- stimulation of NKCC-mediated 86Rb+ influx [5]: ~1.6 fold
